Data on two molecules can be found in patent US20250066338A1, “CERTAIN 3-AZABICYCLO[3.1.0]HEXANES AS GLP-1 RECEPTOR MODULATORS” (AstraZeneca AB, priority 2021, published 2025).

The target of one test is human GLP-1R receptor (Homo sapiens (Human), UniProt P43220, L260F). Nature of the test: CHOK1 GLP-1R cAMP Assay. In kind it is cell-based. To be noted: CHO-K1 cell line stably expressing human GLP-1R; HTRF cAMP; agonist activity. The protocol:
A cell line stably expressing the human GLP-1R receptor (NM 002062.5, including the naturally-occurring variant Leu260Phe) in a CHO-K1 (ATCC® CCL-61™) was used for assay.
GLP-1 receptor mediated agonist activity was determined in a cell based assay measuring cyclic adenosine monophosphate (cAMP) levels in cells using Homogeneous Time-Resolved Fluorescence (HTRF) cAMP detection kit (CisBio catalog #62AM4PEC, cAMP Gs Dynamic range kit). The cAMP detection method is based on a competitive immunoassay, in which cAMP produced by the cells and cAMP labeled with the dye d2 compete for binding to a Europium-Cryptate-labeled anti-cAMP antibody. The specific HTRF signal is inversely proportional to the concentration of cAMP.
Compounds were added to individual well in 384 well-assay plates (Greiner #784076) using an Echo (LabCyte) dispenser from 10 mM stocks. Varying concentration of compounds were added to wells, and DMSO was used to normalize each well to a volume of 100 nL. A dose response curve of GLP1(7-36)NH2 (Bachem H-6795) was included in each run. 5 μL of cAMP concentration response standards are applied in specified wells in the assay plates. Cryo-preserved cells are thawed and resuspended in assay buffer pre-heated to 37° C. (20 mM HEPES pH 7.4, lx Hank's Balanced Salt Solution (HBSS, Life Technologies #14065) supplemented with 0.1% (w/v) bovine serum albumin (Sigma, A-7030). Cells were centrifuged at 250*g for 5 min at rt, and resuspended in room tempered assay buffer to a final density of 0.16*10^6 cell/mL, to deliver 800 cells/well. 5 μL of assay buffer with 1 mM 3-isobutyl-1-methylxanthin (IBMX; Sigma cat I-7018) was dispensed per well in assay plates using a multidrop combi (Thermo Scientific) subsequently 5 μL of cell suspension was distributed to relevant wells in the assay using a multidrop dispenser. Assay plates were incubated 20 min at rt.
Detection reagents, Europium-Cryptate-labeled anti-cAMP antibody and cAMP labeled with the dye d2, are diluted in lysis buffer, provided by the manufacturer. 5 μL of each detection reagent is supplemented to each assay well using a multidrop dispenser. Assay plates are incubated in the dark for at least one h. The HTRF signal is measured using the HTRF module (excitation: 337 nm, emission A: 665 nm and emission B: 620 nm) in Pherastar FSX (BMG Labtech).
Raw data were converted to pM cAMP using the cAMP standard curve included in each run. Converted data were further analyzed in Genedata Screener (Genedata) and EC50 determinations were made from agonist dose-response curves analyzed with a curve fitting program using a 4-parameter logistic dose response equation (Equation y=A+((B−A)/1+((C/x)^D))) where A is no stimulation, B is full stimulation, C is the EC50 and D is the Hill slope). The percent effect was determined relative to a saturating concentration of a full GLP-1R agonist (GLP1(7-36)NH2 has 100% effect in this assay setup).
In general terms: Time-resolved FRET reads energy transfer from a long-lived donor to a nearby acceptor.

Test [1] concerns the target GLP-1R in EndoC-βH1 cells (Homo sapiens (Human), UniProt P43220). Briefly: EndoC cAMP Accumulation Assay. Type of test: cell-based. To be noted: EndoC-βH1 human pancreatic beta cell line; HTRF cAMP accumulation. From the text:
EndoC cAMP Accumulation Assay
A HTRF cAMP assay (cAMP Gs dynamic kit; CisoBio Cat #62AM4PEJ) was used to identify agonists of GLP-1R in a pancreatic insulinoma cell line (EndoC-βH1). […] EndoC-βH1 cells have detectable GLP-1R messenger ribonucleic acid (mRNA) as detected by quantitative polymerase chain reaction (qPCR). […] The EndoC-βH1 cell line is a valid model of human beta cells and applicable for screenings to identify novel drug target candidates (Mol. Metab., 2018, 8, 144-157). CisBio HTRF cAMP kits are based on a competitive immunoassay using cryptate-labelled anti-cAMP antibody and d2-labeled cAMP. The detection kit is intended for the direct quantitative determination of cAMP. The specific signal (i.e. energy transfer) is inversely proportional to the concentration of cAMP in the standard or sample. Test compounds (10 mM in DMSO) were diluted into assay buffer (HBSS (Sigma #H8264) supplemented with 25 mM HEPES (Gibco #15630, pH 7.4), 0.1% BSA (Sigma #A3059) and 0.5 mM IBMX (Sigma #17018) included fresh on the day of the assay) into 96 well U-bottom plates (Greiner #650201). Diluted compounds were transferred to ECHO source polypropylene plates (Labcyte #P-05525) and dose response curves were dispensed acoustically using ECHO 550 into black shallow-well u-bottom 384-well HTRF Assay Plates (Corning 4514).
Cryovials of EndoC-H1 (supplied at 1×10e^7 cells/vial) were used directly for screening. The cryovials and were removed from N2 (1) and thawed rapidly in a 37° C. water bath. The cells were resuspended in assay buffer and centrifuged at 300 g for 5 min. Cells were resuspended in assay buffer at the appropriate concentration, typically at 12e5 cells per mL (3000 cells per well, dependent on cell batch) and 2.5 μL diluted cells were added to all wells of destination plate by Multidrop combi reagent dispenser (Thermofisher). The plates were incubated at rt for 30 min. The assay was stopped by adding 2.5 μL anti-cAMP cryptate solution to all wells and 2.5 μL cAMP-d2 solution (both diluted 1:20 in lysis buffer) to columns 1-22 by Combi drop. A volume of 2.5 μL cAMP-d2 solution was added to wells E23 to P24 and 2.5 μL lysis buffer added to wells A23 to D24 by multichannel pipette. The plates were incubated at rt for 1 h and read on an Envision plate reader using excitation wavelength of 320 nm and emission of […] and 660 nm.
Raw data from Envision is converted to % DeltaF according to the manufacturer's instructions. Dose response curves are analysed via 4-Parameter Logistical Analysis and assay plate Z′ values obtained. Samples are graphed as percentage (%) activation plots compared to GIP (1-42, Bachem H-5645) with assay window defined by negative control as basal cell cAMP levels and positive control are defined by maximum GIP (82.5 nM) signal. GLP1 (7-36 amide, Bachem H-6795) dose response curve was included on all plates.

The target of test [2] is human phosphodiesterase-3A (Homo sapiens (Human), UniProt Q14432). Nature of the test: PDE3 Assay. Particulars: human recombinant enzyme expressed in Sf9 cells; formation of 5'AMP from cAMP. Type of test: biochemical. The protocol: Evaluation of the effects of compounds on the activity of the human phosphodiesterase-3A is quantified by measuring the formation of 5′AMP from cAMP using a human recombinant enzyme expressed in a clonal isolate of Spodoptera frugiperda cells (Sf9) cells.
Sequence of human phosphodiesterase-3A (Q14432 whole entry): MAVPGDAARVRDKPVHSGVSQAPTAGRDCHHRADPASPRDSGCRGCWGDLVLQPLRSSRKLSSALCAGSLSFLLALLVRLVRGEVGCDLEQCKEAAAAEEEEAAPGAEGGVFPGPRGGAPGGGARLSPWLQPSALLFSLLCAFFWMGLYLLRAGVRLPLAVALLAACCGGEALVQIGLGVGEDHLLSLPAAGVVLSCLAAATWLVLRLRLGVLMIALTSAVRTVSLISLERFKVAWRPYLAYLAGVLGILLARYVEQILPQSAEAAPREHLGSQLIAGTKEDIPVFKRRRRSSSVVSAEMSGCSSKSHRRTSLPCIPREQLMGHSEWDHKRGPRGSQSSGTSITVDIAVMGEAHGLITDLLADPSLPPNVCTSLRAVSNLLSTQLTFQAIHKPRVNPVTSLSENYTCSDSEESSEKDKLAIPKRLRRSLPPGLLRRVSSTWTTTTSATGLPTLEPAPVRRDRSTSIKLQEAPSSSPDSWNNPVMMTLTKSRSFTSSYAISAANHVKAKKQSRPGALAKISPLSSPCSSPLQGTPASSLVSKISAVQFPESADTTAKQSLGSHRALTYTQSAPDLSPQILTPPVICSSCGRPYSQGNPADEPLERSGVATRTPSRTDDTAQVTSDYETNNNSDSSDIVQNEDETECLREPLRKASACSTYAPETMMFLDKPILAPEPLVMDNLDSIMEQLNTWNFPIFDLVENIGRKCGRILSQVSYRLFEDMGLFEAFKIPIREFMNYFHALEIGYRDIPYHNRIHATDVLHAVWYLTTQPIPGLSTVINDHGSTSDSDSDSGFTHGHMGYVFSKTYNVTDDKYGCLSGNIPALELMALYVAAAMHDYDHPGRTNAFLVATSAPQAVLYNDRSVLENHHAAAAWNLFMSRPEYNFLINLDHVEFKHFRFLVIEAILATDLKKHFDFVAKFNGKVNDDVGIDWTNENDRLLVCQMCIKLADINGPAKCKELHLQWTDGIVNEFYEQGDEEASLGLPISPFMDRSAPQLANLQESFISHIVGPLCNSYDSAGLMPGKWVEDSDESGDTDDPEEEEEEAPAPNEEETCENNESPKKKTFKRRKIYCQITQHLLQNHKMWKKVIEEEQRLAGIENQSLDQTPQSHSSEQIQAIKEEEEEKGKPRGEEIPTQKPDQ
The test compound, reference compound or water (control) are added to a buffer containing 40 mM tris(hydroxymethyl)aminomethane (Tris)/HCl (pH 7.4) and 8 mM MgCl2, 450 nMcAMP and 0.25 μCi [^3H]cAMP.
Thereafter, the reaction is initiated by addition of the enzyme (about 1 U) and the mixture is incubated for 20 min at 22° C.
For basal control measurements, the enzyme is omitted from the reaction mixture. Following incubation SPA beads are added. After 30 min at 22° C. under shaking, the amount of [^3H]^+ 5′AMP is quantified with a scintillation counter (Topcount, Packard).
The results are expressed as a percent inhibition of the control enzyme activity. The standard inhibitory reference compound is milrinone (CAS number 78415-72-2), which is tested in each experiment at several concentrations to obtain an inhibition curve from which its IC50 value is calculated.

Sequence of GLP-1R in EndoC-βH1 cells (P43220 24-463): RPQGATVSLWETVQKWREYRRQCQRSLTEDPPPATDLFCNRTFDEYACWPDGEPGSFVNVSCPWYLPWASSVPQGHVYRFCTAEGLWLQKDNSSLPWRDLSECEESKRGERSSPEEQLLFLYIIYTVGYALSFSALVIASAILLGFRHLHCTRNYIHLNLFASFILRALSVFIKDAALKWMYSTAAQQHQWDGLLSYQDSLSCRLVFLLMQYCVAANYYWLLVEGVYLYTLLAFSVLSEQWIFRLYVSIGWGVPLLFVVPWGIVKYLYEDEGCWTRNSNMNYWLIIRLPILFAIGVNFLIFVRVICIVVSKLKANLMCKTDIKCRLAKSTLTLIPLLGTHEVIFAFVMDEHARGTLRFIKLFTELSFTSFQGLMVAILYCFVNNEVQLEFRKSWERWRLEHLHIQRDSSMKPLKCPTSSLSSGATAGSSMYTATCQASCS
Sequence of human GLP-1R receptor (P43220 24-463 L260F): as the sequence (P43220 24-463) above, with L237F counted along it

For the molecule `CCn1cncc1Cn1c(CN2C[C@@H]3[C@H](C2)[C@H]3c2nc(OCc3ccc(Cl)cc3F)ccc2F)nc2c(OC)cc(C(=O)O)cc21` [Example 17, 2-(((1R,5S,6r)-6-(6-((4-Chloro-2-fluorobenzyl)oxy)-3-fluoropyridin-2-yl)-3-azabicyclo[3.1.0]hexan-3-yl)methyl)-1-((1-ethyl-1H-imidazol-5-yl)methyl)-4-methoxy-1H-benzo[d]imidazole-6-carboxylic acid], the EC50 at human GLP-1R receptor was 15 nM; in test [1], 9.3 nM. For the same molecule, the IC50 in test [2] was more than 100000 nM.

With `O=C(O)c1ccc2nc(CN3C[C@@H]4[C@H](C3)[C@H]4c3cccc(OCc4ccc(Cl)cc4F)n3)n(C[C@@H]3CCO3)c2c1` [Example 13, 2-(((1R,5S,6S)-6-(6-((4-Chloro-2-fluorobenzyl)oxy)pyridin-2-yl)-3-azabicyclo[3.1.0]hexan-3-yl)methyl)-1-(((S)-oxetan-2-yl)methyl)-1H-benzo[d]imidazole-6-carboxylic acid], the EC50 at human GLP-1R receptor stood at 100 nM; in test [1], 23 nM. The IC50 in test [2] was more than 100000 nM.

What is called EC50 is the concentration that produces a half-maximal response. For orientation: IC50 means the concentration that inhibits the measured activity by half.
